Measured values reported in the supplement of paper PMC8967900.

Columns and labels:
Assay in all cases: selective drug sensitivity score (sDSS, relative to normal bone marrow) (sDSS (score)); higher = more potent and effective on the cell line relative to normal bone marrow cells
Conditions in all cases: 72 h
[1] = tested on: COG-LL-317
[2] = tested on: MN-60
[3] = tested on: LC4-1
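Further: ALL cell lines in 384-well plates, five doses spanning 10,000-fold, each plate scaled between vehicle and 100 µmol/L benzalkonium chloride controls, sDSS an adapted area-under-curve metric.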

CN(C)Cc1ccc(S(=O)(=O)n2ccc(/C=C/C(=O)NO)c2)cc1 [Resminostat] (top concentration 10000 nM)
selective drug sensitivity score [1]: 5.14
selective drug sensitivity score [2]: 2.34
selective drug sensitivity score [3]: 4.54

COc1cc(OC)c(/C=C/S(=O)(=O)Cc2ccc(OC)c(NCC(=O)O)c2)c(OC)c1 [Rigosertib] (top concentration 10000 nM)
selective drug sensitivity score [1]: 14.3
selective drug sensitivity score [2]: 8.96
selective drug sensitivity score [3]: 16.6

Cc1c(-c2ccc(N3CCc4cccc(C(=O)Nc5nc6ccccc6s5)c4C3)nc2C(=O)O)cnn1CC12CC3CC(CC(C3)C1)C2 (top concentration 1000 nM)
selective drug sensitivity score [1]: 25.9
selective drug sensitivity score [2]: -2.26
selective drug sensitivity score [3]: -2.26

Cc1cc(Nc2cc(CN3CCOCC3)c3nc(C)c(Cc4ccc(Cl)cc4F)n3n2)n[nH]1 [Gandotinib] (top concentration 10000 nM)
selective drug sensitivity score [1]: 8.68
selective drug sensitivity score [2]: -3.22
selective drug sensitivity score [3]: 6.98

O=C(c1cccc(Cl)c1F)N1CCN(Cc2cccc(Nc3nccs3)n2)CC1 [MK-8745] (top concentration 10000 nM)
selective drug sensitivity score [1]: 12.9
selective drug sensitivity score [2]: 1.6
selective drug sensitivity score [3]: 11.5

Nc1nccc(-c2c(-c3ccc(F)cc3)ncn2C2CCCCC2)n1 (top concentration 10000 nM)
selective drug sensitivity score [1]: 4.4
selective drug sensitivity score [2]: 0
selective drug sensitivity score [3]: 3.1

COc1nc(N)nc2c1ncn2[C@@H]1O[C@H](CO)[C@@H](O)[C@@H]1O [Nelarabine] (top concentration 10000 nM)
selective drug sensitivity score [1]: 4.58
selective drug sensitivity score [2]: -10.2
selective drug sensitivity score [3]: -7.22

Cc1ccc(NC(=O)c2ccc(CN3CCN(C)CC3)cc2)cc1Nc1nc(-c2cccnc2)cs1 [Masitinib] (top concentration 10000 nM)
selective drug sensitivity score [1]: 3.32
selective drug sensitivity score [2]: -1.58
selective drug sensitivity score [3]: -2.18

CNC(=O)c1ccccc1Nc1cc(Nc2ccc(N3CCOCC3)cc2OC)ncc1C(F)(F)F [VS-4718] (top concentration 10000 nM)
selective drug sensitivity score [1]: -0.8
selective drug sensitivity score [2]: -3.4
selective drug sensitivity score [3]: -3
